Patent US10688194B2, “Cell penetrating peptides for intracellular delivery of molecules” (AADIGEN, LLC, priority 2012, dated 2020)
Values belong to the substance of their own block, whether it stands above or below them. {Cy5} = cyanine 5 fluorescent label

Tests used:
[1] = test system: Hela, MCF7, HEK-2, HS-68, and U2OS cells; experiment: Cell cycle progression, controls; format: cell-based
[2] = Fluorescence titration, VEPEP-3/cargo binding: small hydrophobic molecule; conditions: cargo: Doxorubicine
Experimental: (§1) Fluorescence experiments were performed on a PTI spectrofluorimeter at 25° C. in a NaCl 154 mM buffer. Intrinsic Trp-fluorescence of VEPEP-3 was excited at 290 nm and emission spectrum was recorded between 310 and 400 nm, with a spectral band-pass of 2 and 8 nm for excitation and emission, respectively. FITC-fluorescence of labelled-peptide was excited at 492 nm and emission recorded between 500 and 580 nm. For VEPEP-3/peptide interaction, 0.5 μM of FITC-labelled peptide was titrated by increasing concentrations of VEPEP-3. All measurements were corrected for the dilution and curve fitting were performed by using Grafit software (Erithacus).
(§2) VEPEP-3 peptides also form stable particles with small aromatic molecules including Daunomycin, Paclitaxel, doxorubicin, porphyrin and charged molecules including nucleotide, nucleoside and peptide-analog of nucleic acids or fluorescent dyes (FIGS. 1A-1C). The dissociation constant for small hydrophobic molecule ranges between 0.05 to 2 μM, depending on the nature of the dyes and of the peptides.

protein (GFP & Nanobody) = experiment: Fluorescence titration, VEPEP-3/cargo binding: protein; conditions: cargo: protein (GFP & Nanobody)
Experimental: as §1
(§3) VEPEP-3 peptide form stable complexes with peptides and proteins. The binding of cargos to VEPEP-3 was monitored by fluorescence spectroscopy using the […] intrinsic Trp groups of VEPEP-3 (3 to 5 Trp-residues) and extrinsic fluorescently labelled cargoes (using Cy3, Cy5 or FITC). Curve fitting reveal that VEPEP-3 strongly binds the different cargoes with dissociation constant in the nanomolar range (examples with VEPEP-3a, VEPEP-3C, and VEPEP-3g and three different cargoes are reported in FIGS. 1A-1C, all the data are reported in Table 1).

Peptide (C4 and C2) = experiment: Fluorescence titration, VEPEP-3/cargo binding: peptide
Experimental: as §1, §3

PNA (15 mer-PNA) = experiment: Fluorescence titration, VEPEP-3/cargo binding: PNA; conditions: cargo: 15 mer-PNA
Experimental: as §1, §2

Cyclic peptide (PC4) = experiment: Fluorescence titration, VEPEP-3/cargo binding: cyclic peptide; conditions: cargo: Cyclic peptide (PC4)
Experimental: as §1, §3

Cyclin B1 = experiment: VEPEP-3 mediated delivery of antisense PNA, Cyclin B1 protein level; format: cell-based; conditions: different cultured cells
Text: VEPEP-3 peptides have been used for the delivery of nucleic acid analogues (PNA and morpholino) into different cell lines, including primary cell lines and challenging cell lines. […] We have applied VEPEP-3 strategy for the delivery of PNA antisense targeting Cyclin B1 as previously described (Morris et al, 2007).

Substance: VTLMEAKKQVLT (HELM PEPTIDE1{[ac].V.T.L.M.E.A.K.K.Q.V.L.T.[SCCN[*:1]]}$$$$V2.0; SMILES CSCC[C@H](NC(=O)[C@H](CC(C)C)NC(=O)[C@@H](NC(=O)[C@@H](NC(C)=O)C(C)C)[C@@H](C)O)C(=O)N[C@@H](CCC(=O)O)C(=O)N[C@@H](C)C(=O)N[C@@H](CCCCN)C(=O)N[C@@H](CCCCN)C(=O)N[C@@H](CCC(N)=O)C(=O)N[C@H](C(=O)N[C@@H](CC(C)C)C(=O)N[C@H](C(=O)NCCS)[C@@H](C)O)C(C)C) [scrambled C2, reference compound]
effect on cell cycle progression ([1]; 500 nM, complexed with VEPEP-3a at a 20/1 ratio): no effect

Binding, SHM [2]: Yes
Kd ([2]; read-out: Kd, SHM): 1000 nM
Binding, Protein (protein (GFP & Nanobody)): Yes
Kd (protein (GFP & Nanobody)): 1000 nM
Binding, peptide (Peptide (C4 and C2)): yes
Kd (Peptide (C4 and C2)): 10 to 20 nM
Binding, PNA (PNA (15 mer-PNA)): Yes
Kd (PNA (15 mer-PNA)): 100 nM
Binding, Cyclic peptide (Cyclic peptide (PC4)): yes
Substance: X1KWFERWFREWPRKRR [VEPEP-3a]
effect on cell cycle progression ([1]; carrier alone (200 μM)): no effect

Substance: TGC CAT CGG GCT TGG AGG-CY5 (antisense TGCCATCGGGCTTGGAGG; 3' {Cy5}, sugars by position and backbone not given here; further chemistry not fully specified) [PNA (Cyclin B1)]
downregulation of Cyclin B1 protein level (Cyclin B1): higher than 70%
